# Measured values as given in patent publication US9399626B2, “2-thiopyrimidinones” (Pfizer Inc., priority 2011, dated 2016).
# Structures can show the parent of a compound that is named as a salt.
# Target: T1, MPO (purified from human polynuclear leukocytes) (Homo sapiens, UniProt P05164)
# T1 construct: purified from human polynuclear leukocytes; purchased Calbiochem/EMD Biosciences; host or cells: human polynuclear leukocytes (natural source)
# Assay: MPO Amplex Red Activity Assay
# Assay type: biochemical
# Settings: Table 1, 2 μM H2O2, pH 7.4
# In short: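 Human leukocyte MPO […] oxidises 30 μM Amplex Red with 2 μM H2O2 in 50 mM NaPi pH 7.4, 150 mM NaCl, 1 mM DTPA, 2% DMSO. Resorufin fluorescence (ex 530/em 580 nm) read every 20 s, minus catalase background. kobs from the first 600 s, corrected for auto-inactivation, fit versus [I] for kinact/KI.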
# T1 sequence (P05164 279-745 limits assumed): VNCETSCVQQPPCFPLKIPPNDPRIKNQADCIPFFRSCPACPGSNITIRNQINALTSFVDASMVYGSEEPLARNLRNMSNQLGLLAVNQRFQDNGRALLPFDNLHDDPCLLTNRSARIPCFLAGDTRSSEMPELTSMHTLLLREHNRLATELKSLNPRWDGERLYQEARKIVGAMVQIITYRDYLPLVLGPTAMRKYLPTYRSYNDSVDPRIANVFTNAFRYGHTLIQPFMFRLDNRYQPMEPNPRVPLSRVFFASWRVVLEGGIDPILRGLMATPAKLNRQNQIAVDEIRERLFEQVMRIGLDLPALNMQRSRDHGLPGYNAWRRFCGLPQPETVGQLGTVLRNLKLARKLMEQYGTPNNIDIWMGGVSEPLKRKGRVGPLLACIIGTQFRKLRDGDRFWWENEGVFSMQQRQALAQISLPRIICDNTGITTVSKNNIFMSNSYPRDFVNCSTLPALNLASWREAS
# T1 sequence (P05164 165-273 limits assumed): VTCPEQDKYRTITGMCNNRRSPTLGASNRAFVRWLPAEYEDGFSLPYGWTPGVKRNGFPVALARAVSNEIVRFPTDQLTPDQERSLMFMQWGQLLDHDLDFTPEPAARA
row,MPO kinact/Ki,SMILES
1,1870 1/s per M,"NCCCn1c(-c2ccccc2-n2nccn2)cc(=O)[nH]c1=S [Example 98, 1-(3-aminopropyl)-2-thioxo-6-[2-(2H-1,2,3-triazol-2-yl)phenyl]-2,3-dihydropyrimidin-4(1H)-one hydrochloride]"
2,4460 1/s per M,"COc1ccccc1-c1cc(=O)[nH]c(=S)n1CC(N)=O [Example 17, 2-[6-(2-methoxyphenyl)-4-oxo-2-thioxo-3,4-dihydropyrimidin-1(2H)-yl]acetamide]"
3,2180 1/s per M,"COc1ccc(-c2cc(=O)[nH]c(=S)n2C(C)C(N)=O)c(OC)c1 (stereo not drawn) [Example 188, 2-[6-(2,4-dimethoxyphenyl)-4-oxo-2-thioxo-3,4-dihydropyrimidin-1(2H)-yl]propanamide]"
4,6750 1/s per M,"COc1ccc(Cl)cc1-c1cc(=O)[nH]c(=S)n1CCNC(=O)CN [Example 135, N-{2-[6-(5-chloro-2-methoxyphenyl)-4-oxo-2-thioxo-3,4-dihydropyrimidin-1(2H)-yl]ethyl} glycinamide hydrochloride]"
5,22500 1/s per M,"COc1ccc(Cl)cc1-c1cc(=O)[nH]c(=S)n1CCO [Example 64, 6-(5-chloro-2-methoxyphenyl)-1-(2-hydroxyethyl)-2-thioxo-2,3-dihydropyrimidin-4(1H)-one]"
6,4250 1/s per M,"NC(=O)Cn1c(-c2cc3ccccc3s2)cc(=O)[nH]c1=S [Example 69, 2-[6-(1-benzothien-2-yl)-4-oxo-2-thioxo-3,4-dihydropyrimidin-1(2H)-yl]acetamide]"
7,2910 1/s per M,"COc1ccccc1-c1cc(=O)[nH]c(=S)n1CCOC(C)C [Example 173, 1-(2-isopropoxyethyl)-6-(2-methoxyphenyl)-2-thioxo-2,3-dihydropyrimidin-4(1H)-one]"
8,5900 1/s per M,"COc1cc(-c2cc(=O)[nH]c(=S)n2CC(N)=O)c(OC)cc1Cl [Example 229, 2-[6-(4-chloro-2,5-dimethoxyphenyl)-4-oxo-2-thioxo-3,4-dihydropyrimidin-1(2H)-yl]acetamide]"
9,25900 1/s per M,"COc1ccc(Cl)cc1-c1cc(=O)[nH]c(=S)n1C[C@@H](O)CN [Example 113, 1-[(2S)-3-amino-2-hydroxypropyl]-6-(5-chloro-2-methoxyphenyl)-2-thioxo-2,3-dihydropyrimidin-4(1H)-one trifluoroacetate]"
10,12100 1/s per M,"COc1ccc(-c2cc(=O)[nH]c(=S)n2CCNC(=O)CN)c(OC)c1 [Example 8, 2-amino-N-(2-(6-(2,4-dimethoxyphenyl)-4-oxo-2-thioxo-3,4-dihydropyrimidin-1(2H)-yl)ethyl)acetamide hydrochloride]"
11,1890 1/s per M,"COCCn1c(-c2ccc(F)cc2)cc(=O)[nH]c1=S [Example 290, 6-(4-fluorophenyl)-1-(2-methoxyethyl)-2-thioxo-2,3-dihydropyrimidin-4(1H)-one]"
12,16800 1/s per M,"COc1ccccc1-c1cc(=O)[nH]c(=S)n1CCO [Example 156, 1-(2-hydroxyethyl)-6-(2-methoxyphenyl)-2-thioxo-2,3-dihydropyrimidin-4(1H)-one]"
13,6660 1/s per M,"COc1ccccc1-c1cc(=O)[nH]c(=S)n1CCN=C(N)N [Example 77, 2-{2-[6-(2-methoxyphenyl)-4-oxo-2-thioxo-3,4-dihydropyrimidin-1(2H)-yl]ethyl}guanidine hydrochloride]"
14,6690 1/s per M,"COc1ccc(Cl)cc1-c1cc(=O)[nH]c(=S)n1CCCNC(N)=O [Example 148, 1-{3-[6-(5-chloro-2-methoxyphenyl)-4-oxo-2-thioxo-3,4-dihydropyrimidin-1(2H)-yl]propyl}urea]"
15,16100 1/s per M,"COc1cc2ccccc2cc1-c1cc(=O)[nH]c(=S)n1CCO [Example 100, 1-(2-hydroxyethyl)-6-(3-methoxy-2-naphthyl)-2-thioxo-2,3-dihydropyrimidin-4(1H)-one]"
16,22100 1/s per M,"COc1ccc(Cl)cc1-c1cc(=O)[nH]c(=S)n1CCCN [Example 92, 1-(3-aminopropyl)-6-(5-chloro-2-methoxyphenyl)-2-thioxo-2,3-dihydropyrimidin-4(1H)-one hydrochloride]"
17,5650 1/s per M,"COc1ccc(-c2cc(=O)[nH]c(=S)n2C[C@H](O)CN)c(OC)c1 [Example 197, 1-[(2R)-3-amino-2-hydroxypropyl]-6-(2,4-dimethoxyphenyl)-2-thioxo-2,3-dihydropyrimidin-4(1H)-one trifluoroacetate]"
18,10400 1/s per M,"COCCn1c(-c2c(OC)ccc3ccccc23)cc(=O)[nH]c1=S [Example 339, 1-(2-methoxyethyl)-6-(2-methoxy-1-naphthyl)-2-thioxo-2,3-dihydropyrimidin-4(1H)-one]"
19,4690 1/s per M,"COc1ccc(-c2cc(=O)[nH]c(=S)n2C[C@@H]2CCCO2)c(OC)c1 [Example 213, 6-(2,4-dimethoxyphenyl)-1-[(2S)-tetrahydrofuran-2-ylmethyl]-2-thioxo-2,3-dihydropyrimidin-4(1H)-one]"
20,6640 1/s per M,"COc1ccc(-c2cc(=O)[nH]c(=S)n2C[C@@H]2CCCN2)c(OC)c1 [Example 268, 6-(2,4-dimethoxyphenyl)-1-[(2S)-pyrrolidin-2-ylmethyl]-2-thioxo-2,3-dihydropyrimidin-4(1H)-one hydrochloride hydrochloride hydrochloride, hydrochloride hydrochloride …]"

# Same assay, conditions: Table 1A, 2 μM H2O2, pH 7.4
row,MPO kinact/Ki,SMILES
1,7330 1/s per M,"COc1ccc(-c2cc(=O)[nH]c(=S)n2CC(=O)NCC(F)(F)CN)c(OC)c1 [Example 443, N-(3-amino-2,2-difluoropropyl)-2-[6-(2,4-dimethoxyphenyl)-4-oxo-2-thioxo-3,4-dihydropyrimidin-1(2H)-yl]acetamide]"
2,4070 1/s per M,"CCNC(=O)Cn1c(-c2ccc(OC)cc2OC)cc(=O)[nH]c1=S [Example 434, 2-[6-(2,4-dimethoxyphenyl)-4-oxo-2-thioxo-3,4-dihydropyrimidin-1(2H)-yl]-N-ethylacetamide]"
3,8690 1/s per M,"COc1ccc(-c2cc(=O)[nH]c(=S)n2CC(=O)N[C@@H]2CCNC2)c(OC)c1 [Example 388, 2-[6-(2,4-dimethoxyphenyl)-4-oxo-2-thioxo-3,4-dihydropyrimidin-1(2H)-yl]-N-[(3R)-pyrrolidin-3-yl]acetamide]"
4,3290 1/s per M,"COc1cc(OCC(N)=O)ccc1-c1cc(=O)[nH]c(=S)n1CCN [Example 423, 2-{4-[3-(2-aminoethyl)-6-oxo-2-thioxo-1,2,3,6-tetrahydropyrimidin-4-yl]-3-methoxyphenoxy}acetamide]"
5,2310 1/s per M,"NCCn1c(-c2ccccc2OC(F)(F)F)cc(=O)[nH]c1=S [Example 382, 1-(2-aminoethyl)-2-thioxo-6-[2-(trifluoromethoxy)phenyl]-2,3-dihydropyrimidin-4(1H)-one]"
6,2910 1/s per M,"O=c1cc(-c2ccc3c(c2)OCCO3)n(CCO)c(=S)[nH]1 [Example 356, 6-(2,3-dihydro-1,4-benzodioxin-6-yl)-1-(2-hydroxyethyl)-2-thioxo-2,3-dihydropyrimidin-4(1H)-one]"
7,3910 1/s per M,"NCCNC(=O)Cn1c(-c2ccc(F)cc2OCCO)cc(=O)[nH]c1=S [Example 415, N-(2-aminoethyl)-2-{6-[4-fluoro-2-(2-hydroxyethoxy)phenyl]-4-oxo-2-thioxo-3,4-dihydropyrimidin-1(2H)-yl}acetamide]"
